This is an account of results in patent publication US8178506B2, “Oligomeric compounds and compositions for use in modulation of small non-coding RNAs” (Regulus Therapeutics Inc., priority 2003, dated 2012).

In the oligonucleotide strings, read from the 5' end, every base follows the letter of its sugar. An asterisk marks phosphorothioate; unmarked linkages are phosphodiester. Other units and linkages are bracketed, terminal groups are in braces. A string of capitals states the bases alone. e = 2'-O-(2-methoxyethyl) (MOE); [5mC] = 5-methylcytosine; d = 2'-deoxy (DNA)

The series deals with IL-12 mRNA. The series is described as follows: IL-12 mRNA in LPS-activated primary murine macrophages. Type of series: cell-based, mouse. Particulars: for IL-12 mRNA expression, −IFN % UTC: 300 nM oligomeric compound and LPS, no IFN-gamma pretreatment, single experiment; for IL-12 mRNA expression, −IFN % UTC / IL-12 mRNA expression, +IFN % UTC: normalized to LPS-treated cells without oligomeric compound; for IL-12 mRNA expression, +IFN % UTC: 300 nM oligomeric compound, stimulation with IFN-gamma and LPS, average of 2 experiments; for IL-12 mRNA expression, % UTC: LPS, average of 3 treatments.

In the case of “327935 (antisense e[5mC]*eT*eA*e[5mC]*e[5mC]*eT*eG*e[5mC]*eA*e[5mC]*eT*eA*eT*eA*eA*eG*e[5mC]*eA*e[5mC]*eT*eT*eT*eA) [compound 327935]”, the “IL-12 mRNA expression, −IFN % UTC” value was 254 % UTC and the “IL-12 mRNA expression, +IFN % UTC” value is 24 % UTC.

Consider “327945 (antisense e[5mC]*eT*eG*eT*eT*e[5mC]*e[5mC]*eT*eG*e[5mC]*eT*eG*eA*eA*e[5mC]*eT*eG*eA*eG*e[5mC]*e[5mC]*eA) [compound 327945]”, for which the “IL-12 mRNA expression, −IFN % UTC” value is reported as 202 % UTC and the “IL-12 mRNA expression, +IFN % UTC” value was found to be 68 % UTC.

As to “327924 (antisense eG*e[5mC]*eA*eA*eG*e[5mC]*e[5mC]*e[5mC]*eA*eG*eA*e[5mC]*e[5mC]*eG*e[5mC]*eA*eA*eA*eA*eA*eG) [compound 327924]”, the “IL-12 mRNA expression, −IFN % UTC” value is 171 % UTC and the “IL-12 mRNA expression, +IFN % UTC” value is listed as 88 % UTC.

“327961 (antisense eG*eG*eG*eG*eT*eA*eT*eT*eT*eG*eA*e[5mC]*eA*eA*eA*e[5mC]*eT*eG*eA*e[5mC]*eA) [compound 327961]”: the “IL-12 mRNA expression, −IFN % UTC” value was determined as 203 % UTC and the “IL-12 mRNA expression, +IFN % UTC” value worked out at 10 % UTC.

For “129690 (antisense TTAGAATACGTCGCGTTATG; sugars from the 5' end e5 d10 e5, all phosphorothioate, methylation of C not given here) [compound 129690]”, the “IL-12 mRNA expression, −IFN % UTC” value is listed as 73 % UTC and the “IL-12 mRNA expression, +IFN % UTC” value is 129 % UTC. The “IL-12 mRNA expression, % UTC” value (75 nM, +IFN) is on record as 66 % UTC. Further, the “IL-12 mRNA expression, % UTC” value (75 nM, −IFN) worked out at 114 % UTC. For the same substance, the “IL-12 mRNA expression, % UTC” value (150 nM, +IFN) is recorded as 54 % UTC. The “IL-12 mRNA expression, % UTC” value (150 nM, −IFN) stood at 109 % UTC. Under “300 nM, +IFN”, the “IL-12 mRNA expression, % UTC” value was 66 % UTC. Besides, the “IL-12 mRNA expression, % UTC” value (300 nM, −IFN) is 101 % UTC. Also, the “IL-12 mRNA expression, % UTC” value (600 nM, +IFN) worked out at 81 % UTC. Besides, the “IL-12 mRNA expression, % UTC” value (600 nM, −IFN) is on record as 128 % UTC.

Consider “327940 (antisense eG*eA*eA*e[5mC]*eA*eG*eG*eT*eA*eG*eT*e[5mC]*eT*eG*eA*eA*e[5mC]*eA*e[5mC]*eT*eG*eG*eG) [compound 327940]”, for which the “IL-12 mRNA expression, −IFN % UTC” value worked out at 228 % UTC and the “IL-12 mRNA expression, +IFN % UTC” value was 107 % UTC.

Regarding “327958 (antisense e[5mC]*e[5mC]*eG*eG*e[5mC]*eT*eG*e[5mC]*eA*eA*e[5mC]*eA*e[5mC]*eA*eA*eG*eA*e[5mC]*eA*e[5mC]*eG*eA) [compound 327958]”, the “IL-12 mRNA expression, −IFN % UTC” value is given as 188 % UTC and the “IL-12 mRNA expression, +IFN % UTC” value is reported as 60 % UTC.

As for “327963 (antisense eA*eA*e[5mC]*e[5mC]*eT*eA*eT*e[5mC]*e[5mC]*eT*eG*eA*eA*eT*eT*eA*e[5mC]*eT*eT*eG*eA*eA) [compound 327963]”, the “IL-12 mRNA expression, −IFN % UTC” value came to 224 % UTC and the “IL-12 mRNA expression, +IFN % UTC” value came to 23 % UTC.

Consider “327959 (antisense e[5mC]*eA*eG*e[5mC]*e[5mC]*eG*e[5mC]*eT*eG*eT*e[5mC]*eA*e[5mC]*eA*e[5mC]*eG*e[5mC]*eA*e[5mC]*eA*eG) [compound 327959]”, for which the “IL-12 mRNA expression, −IFN % UTC” value turned out to be 183 % UTC and the “IL-12 mRNA expression, +IFN % UTC” value was determined as 20 % UTC.

Take “327936 (antisense eA*e[5mC]*eA*eG*e[5mC]*eT*eG*eG*eT*eT*eG*eA*eA*eG*eG*eG*eG*eA*e[5mC]*e[5mC]*eA*eA) [compound 327936]”: the “IL-12 mRNA expression, −IFN % UTC” value was found to be 221 % UTC and the “IL-12 mRNA expression, +IFN % UTC” value was determined as 55 % UTC.

For “327971 (antisense eG*eG*eA*eA*eA*eT*e[5mC]*e[5mC]*e[5mC]*eT*eG*eG*e[5mC]*eA*eA*eT*eG*eT*eG*eA*eT) [compound 327971]”, the “IL-12 mRNA expression, −IFN % UTC” value turned out to be 146 % UTC and the “IL-12 mRNA expression, +IFN % UTC” value is recorded as 17 % UTC.
